According to US20040253251A1 (priority 2003, published 2004):
Read-outs that look alike come from different tables or passages of the source.

Legend:
[1] = system: ovarian tumor cells injected subcutaneously; settings: 31st day from tumor inoculation; 30 consecutive days; AY/NY 0.3 ml oral once per day, CTX 30 mg/kg/day s.c.
Method: (§1) The biological composition comprising 10^8 cells per ml of activated and conditioned yeast cells of the strain Saccharomyces cerevisiae Hansen strain AS2.502 was prepared by the methods described in Section 5.1 and subsections therein
The mice injected with tumor cells were kept for 5 days and then were divided into 4 experimental groups of ten mice per group and one control group. The four experimental groups were triplicated (i.e., using a total of 120 mice in the experimental groups).
The mice received the biological compositions, untreated yeast cells, CTX or saline on the same day as the tumor cells were transplanted. The mice in group CK2 also started receiving saline on the same day as the other four groups. The biological compositions, untreated yeast cells and saline were administered orally by a feeding tube and the CTX by subcutaneous injection for 30 consecutive days. […] The weight of the mice and the weight of the tumor were determined by standard techniques.

[2] = system: ovarian tumor cells injected subcutaneously; settings: for Number of live animals remaining in the groups after 30 days of treatment: 30 mice per group
Method: The survival time of mice after tumor injection and treatment was studied.
as §1
The animals were prepared in a similar manner as described in Section 8.1.
The mice injected with tumor cells were kept for 5 days and then were divided into 4 experimental groups of ten mice per group and one control group. The four experimental groups were triplicated (i.e., using a total of 120 mice in the experimental groups). In group 2AY, the mice received 0.3 ml of the biological composition once per day. In group 2NY, the mice received 0.3 ml of the untreated yeast cells once per day. In group 2CTX, the mice were injected subcutaneously with […] of cyclophosphamide (CTX) per kg body weight per day. In group 2CK1, the mice received 0.3 ml of physiological saline once per day.
The mice received the biological compositions, untreated yeast cells, CTX or saline on the same day as the tumor cells were transplanted. Mice in group 2CK2 also started receiving saline on the same day as the other four groups. The biological compositions, untreated yeast cells and saline were administered orally by a feeding tube and the CTX by subcutaneous injection for 30 consecutive days. The mice were observed over 6 months from the day of tumor inoculation and survival was recorded. The weight of the mice and the weight of the tumor were determined by standard techniques.

[3] = system: human ovarian cancer cells transplanted into mice; test: Tumor growth in mouse model of human ovarian cancer (orthotopic transplant), Example 6; assay type: in vivo; settings: 31st day from tumor inoculation; 30 consecutive days; AY/NY 0.3 ml oral once per day, TSPA 1.5 mg/kg/day i.v.
Description: Numerous animal studies have reported the use of orthotopic transplant technique in female mouse models to study the treating of ovarian cancer. See, for example, Animals for Experiments and Experimental Techniques, Chinese Medical Publisher, 1997. The use of orthotopic transplant technique has been highly successful in the development of mouse models of human ovarian cancer.
The human ovarian cancer sample is carefully selected before, during, and after surgery in order to ensure transplant occurred at the equivalent position in the mouse. The ovarian cancer sample is obtained from patients who have not received any radiation, chemotherapy, or immune enhancement treatment.
The mouse were starved for 24 hours before the surgery. The animals were generally anaesthetized. The barbiturates was first diluted in saline and then injected at 0.3 to 0.4 ml per animal, or 30 mg per kg body weight, into the abdomen of the mice. Under sterile conditions, a 1 cm long opening in the body cavity was cut along the right rib of the mice for engraftment of the tumor. About 10^6 units of tumor cells (about 2 mg tumor pieces per ml culture medium) were transplanted. Afterwards, the opening was sutured and the mice were put back into the cage. The animals were allowed to grow for three to five weeks or when the tumor grows to about 1 to 2 cm^3 in size. […]

[4] = system: human ovarian cancer cells transplanted into mice; test: Survival over 6 months in mouse model of human ovarian cancer, Example 7; assay type: in vivo; settings: for Number of live animals remaining in the groups after 30 days of treatment: 30 mice per group
Method: In group 2TSPA, the mice were injected intravenously with 1.5 mg of thiotepa (TSPA) per kg body weight per day.

[5] = 2 months after cessation of treatment
[6] = 3 months after cessation of treatment
[7] = 4 months after cessation of treatment
[8] = 5 months after cessation of treatment
[9] = 6 months after cessation of treatment
[10] = mice that survived the 6 months observation

## O=P1(N(CCCl)CCCl)NCCCO1 (centres unmarked) [CTX, cyclophosphamide]
[1]
  mean weight of mice and standard deviation: 20 ± 2.3 g
  mean weight of tumor nodules and standard deviation: 3.3 ± 1.4 g
[2]; 1 month after cessation of treatment, 2AY/2NY 0.3 ml oral per day, 2CTX 305 mg/kg/day s.c. (30 mg)
  Number of live animals remaining in the groups after 30 days of treatment: 30
[2]; [5]
  Number of live animals remaining in the groups after 30 days of treatment: 30
[2]; [6]
  Number of live animals remaining in the groups after 30 days of treatment: 23
[2]; [7]
  Number of live animals remaining in the groups after 30 days of treatment: 14
[2]; [8]
  Number of live animals remaining in the groups after 30 days of treatment: 9
[2]; [9]
  Number of live animals remaining in the groups after 30 days of treatment: 0
[2]; in words, 6 months observation, 2NY 0.3 ml per day, 2CTX 30 mg/kg per day
  survival outcome during the experiment: all died
[2]; [10]
  mean weight of mice and standard deviation: all animals dead
  mean weight of tumor nodules and standard deviation: all animals dead

## S=P(N1CC1)(N1CC1)N1CC1 [TSPA, thiotepa]
[3]
  mean weight of mice and standard deviation: 21 ± 2.1 g
  mean weight of tumor nodules and standard deviation: 3.1 ± 0.8 mg
[4]; 0 month after cessation of treatment, 2AY/2NY 0.3 ml oral per day, 2TSPA 1.5 mg/kg/day i.v.
  Number of live animals remaining in the groups after 30 days of treatment: 30
[4]; 1 month after cessation of treatment
  Number of live animals remaining in the groups after 30 days of treatment: 24
[4]; [5]
  Number of live animals remaining in the groups after 30 days of treatment: 7
[4]; [6]
  Number of live animals remaining in the groups after 30 days of treatment: 2
[4]; [7]
  Number of live animals remaining in the groups after 30 days of treatment: 0
[4]; [8]
  Number of live animals remaining in the groups after 30 days of treatment: 0
[4]; [9]
  Number of live animals remaining in the groups after 30 days of treatment: 0
[4]; in words, 6 months observation, 2NY 0.3 ml per day, 2TSPA 1.5 of thiotepa per kg per day
  survival outcome during the experiment: all died
[4]; [10]
  mean weight of mice and standard deviation: all animals dead
  mean weight of tumor nodules and standard deviation: all animals dead
